{"source": "paper PMC9364801", "about": "“APOBEC3 selects V179I in HIV-1 reverse transcriptase to provide selective advantage for non-nucleoside reverse transcriptase inhibitor-resistant mutants” (Frontiers in virology, 2022)", "settings_in_all_cases": "TZM-bl cells, MOI 0.02, 48 h; virus infectivity read-out; NNRTI pocket", "key": {"[1]": {"target": "T1, HIV-1 reverse transcriptase (RT), HIV-1NL4-3 (Human immunodeficiency virus type 1 (NEW YORK-5 ISOLATE), UniProt P12497)", "assay": "single-cycle pseudovirus infection, luciferase", "format": "cell-based", "parameters": "gene gag-pol; mature RT p66/p51 heterodimer cut from Gag-Pol polyprotein; […]; tested in TZM-bl cells"}, "[2]": {"target": "T1, HIV-1 reverse transcriptase (RT), HIV-1NL4-3", "assay": "single-cycle pseudovirus infection, luciferase", "format": "cell-based", "parameters": "gene gag-pol; mature RT p66/p51 heterodimer cut from Gag-Pol polyprotein; […]; tested in TZM-bl cells", "remark": "listed apart in the source"}, "[3]": {"target": "T1, HIV-1 reverse transcriptase (RT), HIV-1NL4-3", "parameters": "gene gag-pol"}, "[4]": {"target": "T1, HIV-1 reverse transcriptase (RT), HIV-1NL4-3", "assay": "single-cycle pseudovirus infection, luciferase", "format": "cell-based", "parameters": "gene gag-pol; mature RT p66/p51 heterodimer cut from Gag-Pol polyprotein; […]; tested in TZM-bl cells", "remark": "listed apart in the source"}}}
{"smiles": "Cc1cc(C#N)cc(C)c1Oc1nc(Nc2ccc(C#N)cc2)nc(N)c1Br", "note": "[ETR, etravirine]", "values": [{"measurement": "ETR EC50", "setting": "[1]", "result": "0.83 ± 0.23", "unit": "nM"}]}
{"smiles": "Cc1cc(C)c(Nc2ccnc(Nc3ccc(C#N)cc3)n2)c(C)c1", "note": "[DAP, dapivirine]", "values": [{"measurement": "DAP EC50", "setting": "[2]", "result": "0.26 ± 0.13", "unit": "nM"}]}
{"smiles": "O=C1Nc2ccc(Cl)cc2[C@@](C#CC2CC2)(C(F)(F)F)O1", "note": "[EFV, efavirenz]", "values": [{"measurement": "EFV EC50", "setting": "[3]", "result": "0.65 ± 0.30", "unit": "nM"}]}
{"smiles": "Cn1c(Cn2ccc(C(F)(F)F)c(Oc3cc(Cl)cc(C#N)c3)c2=O)n[nH]c1=O", "note": "[DOR, doravirine]", "values": [{"measurement": "DOR EC50", "setting": "[4]", "result": "1.4 ± 0.28", "unit": "nM"}]}
